According to patent US11066414B2, “Cot modulators and methods of use thereof” (Gilead Sciences, Inc., priority 2015, dated 2021):
Like-named read-outs stand apart in the source and are kept apart here.

Key:
[1] = target: Human Cot (Homo sapiens (Human), UniProt P41279); test: High Throughput Cot Biochemical Assay; settings: for IC50/EC50 [nM]: IC50 (Cot): first value of the cell IC50/EC50, recombinant human Cot catalytic domain, TR-FRET
[2] = target: EGFR (Homo sapiens (Human), UniProt P00533); test: High Throughput EGFR Biochemical Assay; settings: Human EGFR cytoplasmic domain, TR-FRET
Method: Example 42: High Throughput EGFR Biochemical Assay
EGFR activity was measured using KinEASE (Cisbio), a time-resolved fluorescence resonance energy transfer (TR-FRET) immunoassay. In this assay, EGFR-catalyzes the phosphorylation of a universal Tyrosine kinase peptide substrate labeled with XL665. Europium conjugated phosphor-tyrosine specific antibody binds the resulting phosphorylated peptide. Formation of phosphorylated peptide is quantified by TR-FRET with Europium as the donor and XL665 the acceptor. The assay was performed in two main steps. The first step is the kinase reaction step and the second step is the detection step with TR-FRET reagents. In brief, test compounds 1:3 serially diluted in DMSO were delivered into Corning white, low volume, non-binding 384 well plates using the Echo 550 acoustic liquid dispenser (Labcyte®). […] After 60 min of incubation at room temperature, 10 μL of Stop and Detect Solution (1:400 Europium Cryptate labeled anti-phosphorylated peptide antibody solution and 125 nM strepavidin-XL665 Tracer in a 50 mM Hepes pH 7.0 detection buffer containing sufficient EDTA) was added.

[3] = test system: TNFα; test: Cot Monocyte TNFα Cell Based Assay; settings: for IC50/EC50 [nM]: EC50 (TNFα): second value of the cell IC50/EC50, TNFα by TR-FRET
[4] = Homo sapiens, Monocyte, read-out: EC50 TNF, LPS-stimulated human monocytes, TNFα
[5] = IC50 HTRF, Cot HTRF (TR-FRET) biochemical assay
[6] = IC50 HTRF, Cot HTRF (TR-FRET KinEASE) biochemical assay, 400 μM ATP
[7] = Homo sapiens, Monocyte, read-out: EC50 TNF, LPS-stimulated human monocytes, TNFα TR-FRET

Sequence of Human Cot (P41279 30-397): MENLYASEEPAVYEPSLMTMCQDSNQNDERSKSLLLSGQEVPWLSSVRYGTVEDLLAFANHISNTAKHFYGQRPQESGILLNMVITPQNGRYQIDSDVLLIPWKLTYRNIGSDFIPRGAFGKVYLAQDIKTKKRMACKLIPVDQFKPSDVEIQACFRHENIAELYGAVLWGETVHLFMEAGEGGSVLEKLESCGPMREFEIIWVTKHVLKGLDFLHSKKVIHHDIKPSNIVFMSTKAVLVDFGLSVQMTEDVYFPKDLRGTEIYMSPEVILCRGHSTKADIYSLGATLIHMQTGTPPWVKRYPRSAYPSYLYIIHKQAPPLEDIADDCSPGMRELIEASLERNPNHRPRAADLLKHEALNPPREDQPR
Sequence of EGFR (P00533 669-1210): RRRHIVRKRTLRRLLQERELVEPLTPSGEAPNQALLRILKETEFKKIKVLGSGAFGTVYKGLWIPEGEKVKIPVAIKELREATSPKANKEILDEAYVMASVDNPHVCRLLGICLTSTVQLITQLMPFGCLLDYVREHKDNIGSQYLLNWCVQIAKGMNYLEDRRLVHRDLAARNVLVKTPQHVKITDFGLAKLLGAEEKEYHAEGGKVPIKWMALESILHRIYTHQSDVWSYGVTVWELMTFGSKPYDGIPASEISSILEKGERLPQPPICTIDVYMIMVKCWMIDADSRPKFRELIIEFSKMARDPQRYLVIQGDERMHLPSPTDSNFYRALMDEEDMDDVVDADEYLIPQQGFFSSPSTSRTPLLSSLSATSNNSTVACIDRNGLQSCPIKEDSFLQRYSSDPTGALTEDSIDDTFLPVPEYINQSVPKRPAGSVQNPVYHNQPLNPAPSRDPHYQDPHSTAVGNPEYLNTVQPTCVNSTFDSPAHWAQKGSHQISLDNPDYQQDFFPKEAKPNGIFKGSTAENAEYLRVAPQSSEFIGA

EC50 [3, 4]	IC50 [1, 5]	SMILES	further results
102 nM	–	Cn1cc([C@@H](Nc2cc(Cl)c3ncc(C#N)c(Nc4ccc(F)c(Cl)c4)c3c2)c2cccnc2)nn1 [Example 406, (S)-8-chloro-4-((3-chloro-4-fluoro-phenyl)amino)-6-(((1-methyl-1H-1,2,3-triazol-4-yl)(pyridin-3-yl)-methyl)amino)quinoline-3-carbonitrile]	IC50/EC50 [nM]: IC50 (Cot) ([1]; 400 μM ATP): 3 nM; IC50 ([1]; read-out: IC50 HTRF, Cot HTRF (TR-FRET) biochemical assay): 3 nM; IC50 [2]: > 10000 nM; IC50/EC50 [nM]: EC50 (TNFα) ([3]; LPS-stimulated human monocytes): 102 nM
46 nM	1 nM	CCN1CCC(n2cc([C@@H](Nc3cc(Cl)c4ncc(C#N)c(Nc5ccc(F)c(Cl)c5)c4c3)c3cccnc3)nn2)CC1 [Example 362, (S)-8-chloro-4-((3-chloro-4-fluorophenyl)amino)-6-(((1-(1-ethylpiperidin-4-yl)-1H-1,2,3-triazol-4-yl)(pyridin-3-yl)methyl)amino)-quinoline-3-carbonitrile]	IC50/EC50 [nM]: IC50 (Cot) ([1]; 400 μM ATP): 1 nM; IC50 [2]: 3980 nM; IC50/EC50 [nM]: EC50 (TNFα) ([3]; LPS-stimulated human monocytes): 46 nM
–	–	Cc1nnc(C2(n3cc([C@@H](Nc4cc(C#N)c5ncc(C#N)c(NCC(C)(C)C)c5c4)c4ccc(F)nc4C)nn3)CC2)o1 [Example 907, (S)-6-(((6-fluoro-2-methylpyridin-3-yl)(1-(1-(5-methyl-l,3,4-oxadiazol-2-yl)cyclopropyl)-1H-1,2,3-triazol-4-yl)methyl)amino)-4-(neopentylamino)quinoline-3,8-dicarbonitrile]	IC50 ([1]; read-out: IC50 HTRF, Cot HTRF (TR-FRET KinEASE) biochemical assay, 400 μM ATP): 4 nM; EC50 ([3]; read-out: EC50 TNF, LPS-stimulated human monocytes, TNFα TR-FRET): 51 nM
306 nM	2 nM	CC(C)(C)CNc1c(C#N)cnc2c(Cl)cc(N[C@H](c3cn(C4(C(N)=O)CC4)nn3)c3cccc4ncccc34)cc12 [Example 565, (S)-1-(4-(((8-chloro-3-cyano-4-(neopentyl-amino)quinolin-6-yl)amino)(quinolin-5-yl)methyl)-1H-1,2,3-triazol-1-yl)cyclo-propane-1-carboxamide]	–
2370 nM	9 nM	Cn1nccc1[C@H](Nc1cc(Cl)c2ncc(C#N)c(Nc3cnc(F)c(F)c3)c2c1)c1c[nH]nn1 [Example 165, (S)-8-chloro-4-((5,6-difluoropyridin-3-yl)amino)-6-(((1-methyl-1H-pyrazol-5-yl)(1H-1,2,3-triazol-4-yl)methyl)amino)quinoline-3-carbonitrile]	–
60 nM	5 nM	Cc1nc(F)ccc1[C@H](Nc1cc(Cl)c2ncc(C#N)c(NCC(C)(C)C)c2c1)c1cn(C2(C(C)C)CC2)nn1 [Example 757, (S)-8-chloro-6-(((6-fluoro-2-methylpyridin-3-yl)(1-(1-isopropylcyclopropyl)-1H-1,2,3-triazol-4-yl)methyl)amino)-4-(neopentylamino)quinoline-3-carbonitrile]	–
9490 nM	41 nM	Cc1ncsc1[C@H](Nc1cc(Cl)c2ncc(C#N)c(N[C@H](C)c3ccccc3)c2c1)c1c[nH]nn1 [Example 243, 8-chloro-6-(((R)-(4-methylthiazol-5-yl)(1H-1,2,3-triazol-4-yl)methyl)amino)-4-(((R)-1-phenylethyl)amino)quinoline-3-carbonitrile]	–
79 nM	2 nM	N#CCC[C@@H](Nc1c(C#N)cnc2c(Cl)cc(N[C@@H](c3cccnc3)c3cn(C4CC4)nn3)cc12)c1ccccc1 [Example 75, 8-chloro-4-(((R)-3-cyano-1-phenylpropyl)amino)-6-(((S)-(1-cyclopropyl-1H-1,2,3-triazol-4-yl)(pyridin-3-yl)methyl)amino)quinoline-3-carbonitrile]	–
–	–	CC(C)(C)CNc1c(C#N)cnc2c(C#N)cc(N[C@H](c3cn(C4(C(F)(F)F)CC4)nn3)c3cccc4c(=O)n(CC(F)F)ccc34)cc12 [Example 874, (S)-6-(((2-(2,2-difluoroethyl)-1-oxo-1,2-dihydroisoquinolin-5-yl)(1-(1-(trifluoromethyl)cyclopropyl)-1H-1,2,3-triazol-4-yl)methyl)amino)-4-(neopentylamino)quinoline-3,8-dicarbonitrile]	IC50 [1, 6]: 3 nM; EC50 [3, 7]: 73 nM
–	–	Cc1nc(F)ccc1[C@H](Nc1cc(C#N)c2ncc(C#N)c(NCC(C)(C)C(F)(F)F)c2c1)c1cn(C(C)(C)C)nn1 [Example 827, (S)-6-(((1-(tert-butyl)-1H-1,2,3-triazol-4-yl)(6-fluoro-2-methylpyridin-3-yl)methyl)amino)-4-((3,3,3-trifluoro-2,2-dimethylpropyl)amino)quinoline-3,8-dicarbonitrile]	IC50 [1, 6]: 2 nM; EC50 [3, 7]: 38 nM
121 nM	4 nM	Cc1nc(F)ccc1[C@H](Nc1cc(C#N)c2ncc(C#N)c(N[C@H](C)C(C)(C)C)c2c1)c1cn(C2(C(F)(F)F)CC2)nn1 [Example 583, 4-(((R)-3,3-dimethylbutan-2-yl)amino)-6-(((S)-(6-fluoro-2-methylpyridin-3-yl)(1-(1-(trifluoromethyl)cyclopropyl)-1H-1,2,3-triazol-4-yl)methyl)amino)quinoline-3,8-dicarbonitrile]	–
991 nM	3 nM	Cc1nc(F)ccc1[C@H](Nc1cc(F)c2ncc(C#N)c(NCC(C)(C)C)c2c1)c1cn(C2(C(N)=O)CC2)nn1 [Example 486, (S)-1-(4-(((3-cyano-8-fluoro-4-(neopentyl-amino)quinolin-6-yl)amino)(6-fluoro-2-methylpyridin-3-yl)methyl)-1H-1,2,3-triazol-1-yl)cyclopropane-1-carboxamide]	–
158 nM	6 nM	C[C@@H](Nc1c(C#N)cnc2c(Cl)cc(N[C@@H](c3cccnc3)c3cn(C4CCN(C(C)(C)C)CC4)nn3)cc12)c1ccccc1 [Example 259, 6-(((S)-(1-(1-(tert-butyl)piperidin-4-yl)-1H-1,2,3-triazol-4-yl)(pyridin-3-yl)methyl)amino)-8-chloro-4-(((R)-1-phenylethyl)amino)quinoline-3-carbonitrile]	–
